Measured values from paper PMC4045134, “Discovery of Triterpenoids as Reversible Inhibitors of α/β-hydrolase Domain Containing 12 (ABHD12)” (PLoS ONE, 2014).
Entries after “also recorded” stand apart in the source; their conditions may differ.

How the values were obtained:
Format in all cases: biochemical
hABHD12 [1] = target: T1, hABHD12 (Homo sapiens, UniProt Q8N2K0); experiment: Fluorescent glycerol assay of 1-AG hydrolysis in hABHD12-HEK293 lysates; details: hABHD12-HEK293 lysates
T1 construct: expressed in transfected cells; host or cells: HEK293 (transient)
T1 sequence (Q8N2K0 1-398): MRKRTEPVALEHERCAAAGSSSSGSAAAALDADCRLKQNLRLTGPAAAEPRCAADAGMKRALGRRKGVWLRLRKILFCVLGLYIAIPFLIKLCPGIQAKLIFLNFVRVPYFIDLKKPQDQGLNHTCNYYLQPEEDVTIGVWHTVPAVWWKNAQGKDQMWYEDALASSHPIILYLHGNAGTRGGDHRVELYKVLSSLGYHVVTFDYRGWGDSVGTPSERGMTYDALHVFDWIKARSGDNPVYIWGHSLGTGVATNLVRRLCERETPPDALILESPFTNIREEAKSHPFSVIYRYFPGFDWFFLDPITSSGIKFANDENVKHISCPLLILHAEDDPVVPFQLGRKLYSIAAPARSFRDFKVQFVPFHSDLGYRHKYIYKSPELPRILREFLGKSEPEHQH

hABHD12 [2] = target: T1, hABHD12; experiment: Competitive ABPP with TAMRA-FP in hABHD12-HEK293 lysates; details: 1 h inhibitor, 5 min probe
Protocol: (§1) Competitive ABPP using HEK293 cell lysates and mouse brain membranes was conducted to visualize effects of selected triterpenoids on the binding of the active site serine-targeting fluorescent fluorophosphonate probe TAMRA-FP following outlines of previous protocols, [31]. Briefly, lysates (25 µg) of HEK293 cells with or without (Mock) hABHD12 overexpression or mouse wholebrain membranes (100 µg) were treated for 1 h with DMSO or the inhibitor, after which TAMRA-FP labelling was conducted for 5 min (lysates) or 1 hour (membranes) at RT (final probe concentration 2 µM). The reaction was quenched by addition of gel loading buffer (followed by boiling for 5 min in the case of lysates), after which 10 µg protein (10 µl) was loaded per lane and the proteins were resolved in 10% SDS-PAGE together with standards. TAMRA-FP labeling was visualized (λex 552; λem 575 nm) by a fluorescent reader (FLA-3000 laser fluorescence scanner, Fujifilm, Tokyo, Japan). The intensity of bands was quantified using ImageJ, a freely available image analysis software (http://rsbweb.nih.gov/ij/).

ABHD12 = target: T2, ABHD12 (Mus musculus, UniProt Q99LR1); experiment: Competitive ABPP with TAMRA-FP in mouse brain membrane proteome; details: mouse brain membranes, 1 h inhibitor, 1 h probe
T2 construct: the sole serine hydrolase targeted by the triterpenoids in native brain membrane proteome; from tissue; host or cells: mouse whole-brain membranes
T2 sequence (Q99LR1 1-398): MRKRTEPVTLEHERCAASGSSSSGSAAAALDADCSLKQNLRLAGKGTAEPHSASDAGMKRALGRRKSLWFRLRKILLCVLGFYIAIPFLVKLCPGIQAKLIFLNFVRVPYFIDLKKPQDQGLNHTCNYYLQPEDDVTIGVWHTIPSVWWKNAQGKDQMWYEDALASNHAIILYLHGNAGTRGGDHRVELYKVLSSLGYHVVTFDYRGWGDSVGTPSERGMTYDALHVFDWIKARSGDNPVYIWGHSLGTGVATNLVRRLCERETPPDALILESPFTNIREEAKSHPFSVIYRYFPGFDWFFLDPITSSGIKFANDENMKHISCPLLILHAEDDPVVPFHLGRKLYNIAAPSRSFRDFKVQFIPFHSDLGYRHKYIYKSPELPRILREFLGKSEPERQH
Protocol: as §1
(§2) For ABPP experiments (Figure 6C) and cannabinoid receptor activity assays (Table S2), membranes prepared from brain tissue of 4-week-old male rodents were used. The animals were obtained from the National Laboratory Animal Centre, University of Eastern Finland. Approval for the harvesting of animal tissue was obtained from the local welfare officer of the University of Eastern Finland.

hABHD6 = target: T3, hABHD6 (Homo sapiens, UniProt Q9BV23); experiment: Fluorescent glycerol assay in hABHD6-HEK293 lysates; details: 10 µM; NI = no inhibition at 10 µM; read-out: hABHD6 Remaining activity % control ± s.e.m (n=3)
T3 construct: expressed in transfected cells; host or cells: HEK293 (transient)
T3 sequence (Q9BV23 1-337): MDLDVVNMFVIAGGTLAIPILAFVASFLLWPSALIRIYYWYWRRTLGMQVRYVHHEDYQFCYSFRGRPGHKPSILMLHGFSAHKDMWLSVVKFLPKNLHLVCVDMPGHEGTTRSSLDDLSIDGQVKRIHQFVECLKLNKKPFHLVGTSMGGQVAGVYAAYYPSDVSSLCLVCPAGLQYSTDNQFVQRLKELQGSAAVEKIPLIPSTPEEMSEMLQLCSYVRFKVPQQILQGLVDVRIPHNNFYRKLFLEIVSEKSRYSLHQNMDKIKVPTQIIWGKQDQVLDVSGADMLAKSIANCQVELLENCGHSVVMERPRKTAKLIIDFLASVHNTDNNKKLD
Protocol: (§3) Glycerol liberated from 1-AG hydrolysis was determined with a sensitive fluorescent assay using lysates of HEK293 cells with transient overexpression of hABHD12, hABHD6 or hMAGL, essentially as previously described. […] Fluorescence (λex 530; λem 590 nm) was monitored using a Tecan Infinite M200 plate reader (Tecan Group Ltd., Männedorf, Switzerland). Inhibitory activities of selected compounds towards FAAH were determined using membranes of hFAAH overexpressing COS-7 cells, essentially as previously described. The final incubation volume (100 µL) contained 1 µg of protein and the substrate concentration was 20 µM (10 nM of ^3H-anandamide having specific activity of 60 Ci/mmol and concentration of 1 mCi/mL).

hMAGL = target: T4, hMAGL (Homo sapiens, UniProt Q99685); experiment: Fluorescent glycerol assay in hMAGL-HEK293 lysates; details: 10 µM; read-out: hMAGL Remaining activity % control ± s.e.m (n=3)
T4 construct: expressed in transfected cells; host or cells: HEK293 (transient)
T4 sequence (Q99685 1-303): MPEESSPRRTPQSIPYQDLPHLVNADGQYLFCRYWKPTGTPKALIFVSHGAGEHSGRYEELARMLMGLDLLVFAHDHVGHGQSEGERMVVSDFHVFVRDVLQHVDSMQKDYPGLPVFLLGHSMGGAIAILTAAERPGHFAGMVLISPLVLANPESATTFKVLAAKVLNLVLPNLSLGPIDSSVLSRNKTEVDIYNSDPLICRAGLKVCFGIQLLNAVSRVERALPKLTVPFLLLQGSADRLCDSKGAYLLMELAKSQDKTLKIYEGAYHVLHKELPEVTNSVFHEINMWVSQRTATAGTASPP
Protocol: as §3

hFAAH = target: T5, hFAAH (Homo sapiens, UniProt O00519); experiment: FAAH activity, membranes of hFAAH overexpressing COS-7 cells, 3H-anandamide; details: read-out: hFAAH Remaining activity % control (mean (range)), n=2
T5 construct: expressed in transfected cells; host or cells: COS-7
T5 sequence (O00519 1-579): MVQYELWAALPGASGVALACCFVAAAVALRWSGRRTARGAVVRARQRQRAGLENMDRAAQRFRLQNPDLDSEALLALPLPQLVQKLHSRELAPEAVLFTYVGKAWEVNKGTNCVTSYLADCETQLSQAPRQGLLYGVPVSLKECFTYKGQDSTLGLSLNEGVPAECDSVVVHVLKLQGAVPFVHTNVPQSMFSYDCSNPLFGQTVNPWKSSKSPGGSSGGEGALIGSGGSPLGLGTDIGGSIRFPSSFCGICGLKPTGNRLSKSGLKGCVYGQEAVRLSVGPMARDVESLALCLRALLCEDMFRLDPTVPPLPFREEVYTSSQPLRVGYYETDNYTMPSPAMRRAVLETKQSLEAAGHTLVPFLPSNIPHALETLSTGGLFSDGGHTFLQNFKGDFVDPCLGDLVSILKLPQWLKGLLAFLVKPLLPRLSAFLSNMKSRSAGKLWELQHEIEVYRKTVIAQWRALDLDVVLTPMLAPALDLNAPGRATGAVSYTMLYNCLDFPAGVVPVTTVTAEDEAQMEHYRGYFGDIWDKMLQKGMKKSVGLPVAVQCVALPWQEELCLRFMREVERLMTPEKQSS
Protocol: as §3

CB1R [3] = target: T6, CB1R (Rattus norvegicus, UniProt P20272); experiment: [35S]GTPγS binding, CB1R agonist activity, rat cerebellar membranes; details: 10 µM
T6 construct: membranes prepared from brain tissue of 4-week-old male rodents were used; from tissue; host or cells: rat cerebellar membranes
T6 sequence (P20272 whole entry): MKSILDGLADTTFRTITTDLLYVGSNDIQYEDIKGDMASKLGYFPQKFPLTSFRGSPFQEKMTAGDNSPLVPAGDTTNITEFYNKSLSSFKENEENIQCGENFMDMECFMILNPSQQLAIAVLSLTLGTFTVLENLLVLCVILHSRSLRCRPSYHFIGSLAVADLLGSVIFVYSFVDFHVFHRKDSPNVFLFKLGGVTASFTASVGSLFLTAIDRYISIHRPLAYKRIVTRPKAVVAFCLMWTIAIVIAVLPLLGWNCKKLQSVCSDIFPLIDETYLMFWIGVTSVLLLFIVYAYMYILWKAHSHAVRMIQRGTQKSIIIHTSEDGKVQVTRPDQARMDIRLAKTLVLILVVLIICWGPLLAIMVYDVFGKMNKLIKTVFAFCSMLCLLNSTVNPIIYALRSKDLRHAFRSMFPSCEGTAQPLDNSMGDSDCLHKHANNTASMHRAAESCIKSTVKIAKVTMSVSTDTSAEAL
Protocol: (§4) The CB1 and CB2 receptor activity of the selected compounds (10 µM) were measured using the GTPγS binding assay according to the previously described methods, [33].
as §2

hCB2R = target: T7, hCB2R (Homo sapiens, UniProt P34972); experiment: [35S]GTPγS binding, CB2R agonist activity, hCB2R-CHO cell membranes; details: 10 µM
T7 construct: expressed in transfected cells; host or cells: CHO
T7 sequence (P34972 whole entry): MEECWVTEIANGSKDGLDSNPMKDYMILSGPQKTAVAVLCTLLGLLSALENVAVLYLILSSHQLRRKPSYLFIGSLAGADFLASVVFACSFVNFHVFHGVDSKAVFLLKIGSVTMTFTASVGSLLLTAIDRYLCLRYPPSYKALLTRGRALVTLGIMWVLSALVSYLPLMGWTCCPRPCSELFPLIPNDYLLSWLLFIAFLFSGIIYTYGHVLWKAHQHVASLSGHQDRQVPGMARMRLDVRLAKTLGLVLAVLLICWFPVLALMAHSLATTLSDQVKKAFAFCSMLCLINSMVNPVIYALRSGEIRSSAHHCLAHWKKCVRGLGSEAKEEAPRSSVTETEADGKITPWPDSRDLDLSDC

CB1R [4] = target: T6, CB1R; experiment: [35S]GTPγS binding, CB1R antagonist activity, rat cerebellar membranes; details: 10 µM
Protocol: as §4, §2

[5] = tested on: metabolic serine hydrolases; experiment: Competitive ABPP, other serine hydrolases of mouse brain membrane proteome
Protocol: as §1
For ABPP experiments (Figure 6C) and cannabinoid receptor activity assays (Table S2), membranes prepared from brain tissue of 4-week-old male rodents were used. The animals were obtained from the National Laboratory Animal Centre, University of Eastern Finland. […]

hABHD12 [6] = target: T1, hABHD12; experiment: Reversibility testing, 40-fold dilution of enzyme-inhibitor complex; details: time points 10, 20, 30, 60 and 90 min
Protocol: Reversibility testing was carried out as previously described. Briefly, DMSO/inhibitor (0.5 µl) was incubated together with hABHD12-HEK293 lysate (4.5 µl, 0.3 µg protein/well) in TEMN-BSA buffer for 30 min. After this, a 40-fold dilution of enzyme-inhibitor complex was brought about by addition of the substrate [1-AG, 12.5 µM final concentration, containing additionally 1% EtOH (v/v)] in 195 µl of glycerol assay mix and fluorescence was kinetically monitored at 10 min intervals for 90 min at RT.

| Compound | remaining activity at 10 µM (hABHD12 [1]; 10 µM, NI = no inhibition, read-out: Remaining activity at 10 µM % ± s.e.m.) | TAMRA-FP probe labeling of hABHD12 (hABHD12 [2]) | TAMRA-FP probe labeling of ABHD12 (ABHD12) | IC50 (hABHD12 [1]; three independent experiments, read-out: -logIC50±s.e.m. (converted)) | Emax (hABHD12 [1]; read-out: max inhibition (converted)) | remaining activity at 10 µM (hABHD6) | remaining activity at 10 µM (hMAGL) | remaining activity at 10 µM (hFAAH) | CB1R agonist activity [35S]GTPγS binding % Basal (Mean (range), n=2) (CB1R [3]) | CB2R agonist activity [35S]GTPγS binding % Basal (Mean (range), n=2) (hCB2R) | CB1R antagonist activity [35S]GTPγS binding % HU210-evoked response (Mean (range), n=2) (CB1R [4]) | additional targets among the metabolic serine hydrolases [5] | time-dependency of inhibitor potency (IC50) after 40-fold dilution (hABHD12 [6]) |
| --- | --- | --- | --- | --- | --- | --- | --- | --- | --- | --- | --- | --- | --- |
| C=C(C)[C@@H]1CC[C@]2(C(=O)N3CCCCC3)CC[C@]3(C)[C@H](CC[C@@H]4[C@@]5(C)CC[C@H](O)C(C)(C)[C@@H]5CC[C@]43C)[C@@H]12 [Compound 22] | 94 ± 0.5% | lacked activity; also recorded: ineffective | ineffective, even at 200 µM concentration | – | – | – | – | – | – | – | – | – | – |
| CC(C)[C@@H]1CC[C@]2(C(=O)O)CC[C@]3(C)[C@H](CC[C@@H]4[C@@]5(C)CCC(=O)C(C)(C)[C@@H]5CC[C@]43C)[C@@H]12 [Compound 23] | – | dose-dependently inhibited probe labeling of hABHD12 | selectively inhibited probe labeling of ABHD12; also recorded: dose-dependently inhibit TAMRA-FP labeling of ABHD12 already at 20 µM | 1620 nM | 89% | 83 ± 2.8% | 77.5 ± 3.1% | 98% | 89 (86-92) % Basal | 98 (95-100) % Basal | 92 (90-95) % HU210-evoked response | no additional targets are evident | – |
| CCCCCCCCCCC[C@@H](C[C@@H]1OC(=O)[C@H]1CCCCCC)OC(=O)[C@H](CC(C)C)NC=O [THL, tetrahydrolipstatin, reference compound] | – | fully prevented | prevented TAMRA-FP labeling | – | – | – | – | – | – | – | – | – | remained constant; also recorded: does not change in a statistically significant manner |
